In ChEMBL document CHEMBL1153594, “Design, synthesis and biological evaluation of novel 2-[(2,4-diaryl-3-azabicyclo[3.3.1]nonan-9-ylidene)hydrazono]-1,3-thiazolidin-4-ones as a new class of antimicrobial agents” (2009):
Converted amounts (≈) assume the structure as drawn. The source made the active and inactive calls. The rule behind the calls is not given here.

What was measured:
Escherichia coli [1] = experiment: Antibacterial activity against Escherichia coli ATCC 25835 after 24 hrs by twofold serial dilution method; type: functional; settings: ATCC 25835, 24 h
Klebsiella pneumoniae [2] = experiment: Antibacterial activity against Klebsiella pneumoniae ATCC 15490 after 24 hrs by twofold serial dilution method; type: functional; settings: ATCC 15490, 24 h
Staphylococcus aureus = experiment: Antibacterial activity against Staphylococcus aureus ATCC 25825 after 24 hrs by twofold serial dilution method; type: functional; settings: ATCC 25825, 24 h
Rhizopus [3] = experiment: Antifungal activity against Rhizopus sp. ATCC 2915 after 72 to 96 hrs by twofold serial dilution method; type: functional
Cryptococcus neoformans = experiment: Antifungal activity against Cryptococcus neoformans ATCC 3312 after 72 to 96 hrs by twofold serial dilution method; type: functional
Candida albicans [4] = experiment: Antifungal activity against Candida albicans ATCC 3122 by twofold serial dilution method; type: functional
Aspergillus flavus [5] = experiment: Antifungal activity against Aspergillus flavus ATCC 485 after 72 to 96 hrs by twofold serial dilution method; type: functional
Bacillus subtilis = experiment: Antibacterial activity against Bacillus subtilis ATCC 451 after 24 hrs by twofold serial dilution method; type: functional; settings: ATCC 451, 24 h
Aspergillus niger [6] = experiment: Antifungal activity against Aspergillus niger ATCC 598 after 72 to 96 hrs by twofold serial dilution method; type: functional
[7] = test system: Salmonella enterica subsp. enterica; experiment: Antibacterial activity against Salmonella typhi ATCC 24915 after 24 hrs by twofold serial dilution method; type: functional, Salmonella enterica subsp. enterica serovar Typhi; settings: ATCC 24915, 24 h
Aspergillus flavus [8] = experiment: Antifungal activity against Aspergillus flavus ATCC 485 at 200 ug/mL after 72 to 96 hrs by twofold serial dilution method; type: functional, organism-based
Aspergillus niger [9] = experiment: Antifungal activity against Aspergillus niger ATCC 598 at 200 ug/mL after 72 to 96 hrs by twofold serial dilution method; type: functional, organism-based
Escherichia coli [10] = experiment: Antibacterial activity against Escherichia coli ATCC 25835 at 200 ug/mL after 24 hrs by twofold serial dilution method; type: functional, organism-based
Candida albicans [11] = experiment: Antifungal activity against Candida albicans ATCC 3122 at 200 ug/mL by twofold serial dilution method; type: functional, organism-based
Klebsiella pneumoniae [12] = experiment: Antibacterial activity against Klebsiella pneumoniae ATCC 15490 at 200 ug/mL after 24 hrs by twofold serial dilution method; type: functional, organism-based
[13] = test system: Salmonella enterica subsp. enterica; experiment: Antibacterial activity against Salmonella typhi ATCC 24915 at 200 ug/mL after 24 hrs by twofold serial dilution method; type: functional, organism-based; settings: Salmonella enterica subsp. enterica serovar Typhi
Rhizopus [14] = experiment: Antifungal activity against Rhizopus sp. ATCC 2915 at 200 ug/mL after 72 to 96 hrs by twofold serial dilution method; type: functional, organism-based

SMILES	MIC (Escherichia coli [1]) [µg/mL]	MIC (Klebsiella pneumoniae [2]) [µg/mL]	MIC (Staphylococcus aureus) [µg/mL]	MIC (Rhizopus [3]) [µg/mL]	MIC (Cryptococcus neoformans) [µg/mL]	MIC (Candida albicans [4]) [µg/mL]	MIC (Aspergillus flavus [5]) [µg/mL]	MIC (Bacillus subtilis) [µg/mL]	MIC (Aspergillus niger [6]) [µg/mL]	MIC [7] [µg/mL]	MIC (Aspergillus flavus [8])	MIC (Aspergillus niger [9])	MIC (Escherichia coli [10])	MIC (Candida albicans [11])	MIC (Klebsiella pneumoniae [12])	MIC [13]	MIC (Rhizopus [14])
NC(=S)NN=C1C2CCCC1C(c1ccc(Cl)cc1)NC2c1ccc(Cl)cc1 (stereo not given)	6.25 (≈ 14.4 µM)	200 (≈ 461 µM)	25 (≈ 57.7 µM)	50 (≈ 115 µM)	25 (≈ 57.7 µM)	25 (≈ 57.7 µM)	6.25 (≈ 14.4 µM)	100 (≈ 231 µM)	100 (≈ 231 µM)	100 (≈ 231 µM)	–	–	–	–	–	–	–
COc1cccc(C2NC(c3cccc(OC)c3)C3CCCC2C3=NNC(N)=S)c1 (stereo not given)	25 (≈ 58.9 µM)	100 (≈ 236 µM)	50 (≈ 118 µM)	100 (≈ 236 µM)	100 (≈ 236 µM)	50 (≈ 118 µM)	–	50 (≈ 118 µM)	50 (≈ 118 µM)	200 (≈ 471 µM)	inactive	–	–	–	–	–	–
COc1ccc(C2NC(c3ccc(OC)cc3)C3CCCC2C3=N/N=C2/NC(=O)CS2)cc1 (stereo not given)	100 (≈ 215 µM)	25 (≈ 53.8 µM)	6.25 (≈ 13.5 µM)	200 (≈ 430 µM)	50 (≈ 108 µM)	100 (≈ 215 µM)	–	50 (≈ 108 µM)	100 (≈ 215 µM)	100 (≈ 215 µM)	inactive	–	–	–	–	–	–
O=C1CS/C(=N\N=C2C3CCCC2C(c2ccc(F)cc2)NC3c2ccc(F)cc2)N1 (stereo not given)	50 (≈ 114 µM)	100 (≈ 227 µM)	6.25 (≈ 14.2 µM)	100 (≈ 227 µM)	25 (≈ 56.8 µM)	6.25 (≈ 14.2 µM)	100 (≈ 227 µM)	25 (≈ 56.8 µM)	200 (≈ 454 µM)	12.5 (≈ 28.4 µM)	–	–	–	–	–	–	–
Cc1ccc(C2NC(c3ccc(C)cc3)C3CCCC2C3=N/N=C2/NC(=O)CS2)cc1 (stereo not given)	50 (≈ 116 µM)	25 (≈ 57.8 µM)	25 (≈ 57.8 µM)	50 (≈ 116 µM)	100 (≈ 231 µM)	100 (≈ 231 µM)	25 (≈ 57.8 µM)	25 (≈ 57.8 µM)	–	100 (≈ 231 µM)	–	inactive	–	–	–	–	–
CN[C@@H]1[C@H](O[C@H]2[C@H](O[C@H]3[C@H](O)[C@@H](O)[C@H](N=C(N)N)[C@@H](O)[C@@H]3N=C(N)N)O[C@@H](C)[C@]2(O)C=O)O[C@@H](CO)[C@H](O)[C@H]1O [STREPTOMYCIN]	12.5 (≈ 21.5 µM)	25 (≈ 43 µM)	50 (≈ 86 µM)	–	–	–	–	12.5 (≈ 21.5 µM)	–	50 (≈ 86 µM)	–	–	–	–	–	–	–
NC(=S)NN=C1C2CCCC1C(c1ccc(F)cc1)NC2c1ccc(F)cc1 (stereo not given)	–	100 (≈ 250 µM)	50 (≈ 125 µM)	100 (≈ 250 µM)	25 (≈ 62.4 µM)	50 (≈ 125 µM)	6.25 (≈ 15.6 µM)	25 (≈ 62.4 µM)	100 (≈ 250 µM)	12.5 (≈ 31.2 µM)	–	–	inactive	–	–	–	–
COc1ccc(C2NC(c3ccc(OC)cc3)C3CCCC2C3=NNC(N)=S)cc1 (stereo not given)	50 (≈ 118 µM)	100 (≈ 236 µM)	25 (≈ 58.9 µM)	200 (≈ 471 µM)	50 (≈ 118 µM)	–	100 (≈ 236 µM)	50 (≈ 118 µM)	200 (≈ 471 µM)	200 (≈ 471 µM)	–	–	–	inactive	–	–	–
O=C1CS/C(=N\N=C2C3CCCC2C(c2ccc(Cl)cc2)NC3c2ccc(Cl)cc2)N1 (stereo not given)	100 (≈ 211 µM)	50 (≈ 106 µM)	6.25 (≈ 13.2 µM)	6.25 (≈ 13.2 µM)	12.5 (≈ 26.4 µM)	25 (≈ 52.8 µM)	100 (≈ 211 µM)	25 (≈ 52.8 µM)	25 (≈ 52.8 µM)	6.25 (≈ 13.2 µM)	–	–	–	–	–	–	–
O=C1CS/C(=N/N=C2C3CCCC2C(c2ccccc2Cl)NC3c2ccccc2Cl)N1 (stereo not given)	25 (≈ 52.8 µM)	–	100 (≈ 211 µM)	6.25 (≈ 13.2 µM)	100 (≈ 211 µM)	50 (≈ 106 µM)	50 (≈ 106 µM)	100 (≈ 211 µM)	25 (≈ 52.8 µM)	50 (≈ 106 µM)	–	–	–	–	inactive	–	–
NC(=S)NN=C1C2CCCC1C(c1cccc(F)c1)NC2c1cccc(F)c1 (stereo not given)	100 (≈ 250 µM)	25 (≈ 62.4 µM)	6.25 (≈ 15.6 µM)	100 (≈ 250 µM)	25 (≈ 62.4 µM)	25 (≈ 62.4 µM)	50 (≈ 125 µM)	25 (≈ 62.4 µM)	25 (≈ 62.4 µM)	50 (≈ 125 µM)	–	–	–	–	–	–	–
Cc1ccc(C2NC(c3ccc(C)cc3)C3CCCC2C3=NNC(N)=S)cc1 (stereo not given)	50 (≈ 127 µM)	100 (≈ 255 µM)	12.5 (≈ 31.8 µM)	100 (≈ 255 µM)	200 (≈ 509 µM)	200 (≈ 509 µM)	–	100 (≈ 255 µM)	200 (≈ 509 µM)	–	inactive	–	–	–	–	inactive	–
NC(=S)NN=C1C2CCCC1C(c1ccccc1Cl)NC2c1ccccc1Cl (stereo not given)	100 (≈ 231 µM)	50 (≈ 115 µM)	200 (≈ 461 µM)	25 (≈ 57.7 µM)	100 (≈ 231 µM)	200 (≈ 461 µM)	100 (≈ 231 µM)	100 (≈ 231 µM)	100 (≈ 231 µM)	50 (≈ 115 µM)	–	–	–	–	–	–	–
C[C@@H]1[C@H](O)[C@@H](C)/C=C/C=C/C=C/C=C/C=C/C=C/C=C/[C@H](O[C@@H]2O[C@H](C)[C@@H](O)[C@H](N)[C@@H]2O)C[C@@H]2O[C@](O)(C[C@@H](O)C[C@@H](O)[C@H](O)CC[C@@H](O)C[C@@H](O)CC(=O)O[C@H]1C)C[C@H](O)[C@H]2C(=O)O [AMPHOTERICIN B]	–	–	–	25 (≈ 27.1 µM)	25 (≈ 27.1 µM)	25 (≈ 27.1 µM)	50 (≈ 54.1 µM)	–	50 (≈ 54.1 µM)	–	–	–	–	–	–	–	–
O=C1CS/C(=N\N=C2C3CCCC2C(c2ccccc2)NC3c2ccccc2)N1 (stereo not given)	12.5 (≈ 30.9 µM)	50 (≈ 124 µM)	50 (≈ 124 µM)	200 (≈ 494 µM)	50 (≈ 124 µM)	50 (≈ 124 µM)	200 (≈ 494 µM)	25 (≈ 61.8 µM)	–	100 (≈ 247 µM)	–	inactive	–	–	–	–	–
O=C1CS/C(=N\N=C2C3CCCC2C(c2cccc(F)c2)NC3c2cccc(F)c2)N1 (stereo not given)	100 (≈ 227 µM)	–	100 (≈ 227 µM)	6.25 (≈ 14.2 µM)	12.5 (≈ 28.4 µM)	6.25 (≈ 14.2 µM)	50 (≈ 114 µM)	50 (≈ 114 µM)	100 (≈ 227 µM)	6.25 (≈ 14.2 µM)	–	–	–	–	inactive	–	–
COc1cccc(C2NC(c3cccc(OC)c3)C3CCCC2C3=N/N=C2/NC(=O)CS2)c1 (stereo not given)	50 (≈ 108 µM)	50 (≈ 108 µM)	100 (≈ 215 µM)	100 (≈ 215 µM)	100 (≈ 215 µM)	50 (≈ 108 µM)	200 (≈ 430 µM)	100 (≈ 215 µM)	50 (≈ 108 µM)	6.25 (≈ 13.5 µM)	–	–	–	–	–	–	–
NC(=S)NN=C1C2CCCC1C(c1ccccc1)NC2c1ccccc1 (stereo not given)	100 (≈ 274 µM)	200 (≈ 549 µM)	50 (≈ 137 µM)	–	100 (≈ 274 µM)	200 (≈ 549 µM)	200 (≈ 549 µM)	100 (≈ 274 µM)	200 (≈ 549 µM)	200 (≈ 549 µM)	–	–	–	–	–	–	inactive
